Key:
LXRβ = LXRβ (Homo sapiens (Human), UniProt P55055); test: In vitro assay LXRβ: PathHunter NHR CHO cells, LXRβ / Steroid Receptor Co-activator Peptide enzyme fragment complementation; assay type: cell-based; conditions: PathHunter NHR CHO cells, full-length human LXRβ and SRCP, chemiluminescent signal; read-out: LXRβ PPI
In short: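 Co-activator recruitment measured by chemiluminescence after signal generation. The CHO line carries full-length human LXRβ tagged with ProLink and an SRCP–enzyme acceptor fusion in the nucleus; cells sat overnight at 37° C before testing, in charcoal-dextran filtered serum medium with 1% final vehicle.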

SREBP-2 = SREBP-2 (Homo sapiens (Human), UniProt Q12772); test: In vitro assay SREBP-2: PathHunter U2OS SREBP-2 Nuclear Translocation Cell Line, U18666A-stimulated; assay type: cell-based; conditions: PathHunter U2OS SREBP-2 nuclear translocation cells, U18666A 10 μM, overnight (16 hours)

Chain of LXRβ (P55055 whole entry, the tested form may be a part): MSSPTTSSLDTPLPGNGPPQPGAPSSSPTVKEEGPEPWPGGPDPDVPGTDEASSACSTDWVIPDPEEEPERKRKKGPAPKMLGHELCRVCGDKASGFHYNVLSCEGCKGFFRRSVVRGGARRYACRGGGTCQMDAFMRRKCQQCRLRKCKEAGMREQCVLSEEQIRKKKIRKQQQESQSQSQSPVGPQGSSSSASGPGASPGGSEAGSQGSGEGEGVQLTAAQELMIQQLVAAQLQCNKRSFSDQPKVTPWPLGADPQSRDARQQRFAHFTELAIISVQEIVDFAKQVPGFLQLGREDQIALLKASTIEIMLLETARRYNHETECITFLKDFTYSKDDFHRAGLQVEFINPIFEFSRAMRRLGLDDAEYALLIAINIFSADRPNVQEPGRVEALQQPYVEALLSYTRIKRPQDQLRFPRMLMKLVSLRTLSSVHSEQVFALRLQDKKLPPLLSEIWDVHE

For CCc1cccc(CC[C@@H](C)[C@H]2CC[C@H]3[C@@H]4CC=C5C[C@@H](O)CC[C@]5(C)[C@H]4CC[C@]23C)n1 [Example 167, (3S,8S,9S,10R,13R,14S,17R)-17-((R)-4-(6-ethylpyridin-2-yl)butan-2-yl)-10,13-dimethyl-2,3,4,7,8,9,10,11,12,13,14,15,16,17-tetradecahydro-1H-cyclopenta[a]phenanthren-3-ol], the EC50 (LXRβ) was > 10 µM and the IC50 (SREBP-2) was 0.25 to 1 µM.
COc1cccc(CC[C@@H](C)[C@H]2CC[C@H]3[C@@H]4CC=C5C[C@@H](O)CC[C@]5(C)[C@H]4CC[C@]23C)n1 [Example 168, (3S,8S,9S,10R,13R,14S,17R)-17-((R)-4-(6-methoxypyridin-2-yl)butan-2-yl)-10,13-dim ethyl-2,3,4,7,8,9,10,11,12,13,14,15,16,17-tetradecahydro-1H-cyclopenta[a]phenanthren-3-ol] was tested, and the EC50 (LXRβ) was > 10 µM and the IC50 (SREBP-2) was 0.25 to 1 µM.
With C[C@H](CCc1cncnc1)[C@H]1CC[C@H]2[C@@H]3CC=C4C[C@@H](O)CC[C@]4(C)[C@H]3CC[C@]12C [Example 171, (3S,8S,9S,10R,13R,14S,17R)-10,13-dimethyl-17-((R)-4-(pyrimidin-5-yl)butan-2-yl)-2,3,4,7,8,9,10,11,12,13,14,15,16,17-tetradecahydro-1H-cyclopenta[a]phenanthren-3-ol] the EC50 (LXRβ) was > 10 µM and the IC50 (SREBP-2) was < 0.25 µM.
In the case of C[C@H](CCc1nccs1)[C@H]1CC[C@H]2[C@@H]3CC=C4C[C@@H](O)CC[C@]4(C)[C@H]3CC[C@]12C [Example 172, (1R,3aS,3bS,7S,9aR,9bS,11aR)-9a,11a-dimethyl-1-[(2R)-4-(1,3-thiazol-2-yl)butan-2-yl]-1H,2H,3H,3aH,3bH,4H,6H,7H,8H,9H,9aH,9bH,10H,11H,11aH-cyclopenta[a]phenanthren-7-ol], the EC50 (LXRβ) is reported as 1 to 10 µM and the IC50 (SREBP-2) is reported as 0.25 to 1 µM.
In the case of C[C@H](CCc1cncs1)[C@H]1CC[C@H]2[C@@H]3CC=C4C[C@@H](O)CC[C@]4(C)[C@H]3CC[C@]12C [Example 173, (3S,8S,9S,10R,13R,14S,17R)-10,13-dimethyl-17-((R)-4-(thiazol-5-yl)butan-2-yl)-2,3,4,7,8,9,10,11,12,13,14,15,16,17-tetradecahydro-1H-cyclopenta[a]phenanthren-3-ol], the EC50 (LXRβ) is reported as > 10 µM and the IC50 (SREBP-2) is reported as 0.25 to 1 µM.
In the case of C[C@H](CCc1ncns1)[C@H]1CC[C@H]2[C@@H]3CC=C4C[C@@H](O)CC[C@]4(C)[C@H]3CC[C@]12C [Example 174, (1R,3aS,3bS,7S,9aR,9bS,11aR)-9a,11a-dimethyl-1-[(2R)-4-(1,2,4-thiadiazol-5-yl)butan-2-yl]-1H,2H,3H,3aH,3bH,4H,6H,7H,8H,9H,9aH,9bH,10H,11H,11aH-cyclopenta[a]phenanthren-7-ol], the EC50 (LXRβ) is reported as 0.25 to 1 µM and the IC50 (SREBP-2) is reported as 0.25 to 1 µM.
With C[C@H](CCc1cscn1)[C@H]1CC[C@H]2[C@@H]3CC=C4C[C@@H](O)CC[C@]4(C)[C@H]3CC[C@]12C [Example 175, (1R,3aS,3bS,7S,9aR,9bS,11aR)-9a,11a-dimethyl-1-[(2R)-4-(1,3-thiazol-4-yl)butan-2-yl]-1H,2H,3H,3aH,3bH,4H,6H,7H,8H,9H,9aH,9bH,10H,11H,11aH-cyclopenta[a]phenanthren-7-ol] the EC50 (LXRβ) was 1 to 10 µM and the IC50 (SREBP-2) was < 0.25 µM.
For C[C@H](CCc1cnsc1)[C@H]1CC[C@H]2[C@@H]3CC=C4C[C@@H](O)CC[C@]4(C)[C@H]3CC[C@]12C [Example 176, (3S,8S,9S,10R,13R,14S,17R)-17-((R)-4-(isothiazol-4-yl)butan-2-yl)-10,13-dimethyl-2,3,4,7,8,9,10,11,12,13,14,15,16,17-tetradecahydro-1H-cyclopenta[a]phenanthren-3-ol], the EC50 (LXRβ) was > 10 µM and the IC50 (SREBP-2) was 0.25 to 1 µM.
In the case of C[C@H](CCc1ccc2ccccc2n1)[C@H]1CC[C@H]2[C@@H]3CC=C4C[C@@H](O)CC[C@]4(C)[C@H]3CC[C@]12C [Example 178, (3S,8S,9S,10R,13R,14S,17R)-10,13-dimethyl-17-((R)-4-(quinolin-2-yl)butan-2-yl)-2,3,4,7,8,9,10,11,12,13,14,15,16,17-tetradecahydro-1H-cyclopenta[a]phenanthren-3-ol], the EC50 (LXRβ) is reported as > 10 µM and the IC50 (SREBP-2) is reported as 0.25 to 1 µM.
With C[C@H](COc1ccccn1)[C@H]1CC[C@H]2[C@@H]3CC=C4C[C@@H](O)CC[C@]4(C)[C@H]3CC[C@]12C [Example 179, (3S,8S,9S,10R,13S,14S,17R)-10,13-dimethyl-17-((S)-1-(pyridin-2-yloxy)propan-2-yl)-2,3,4,7,8,9,10,11,12,13,14,15,16,17-tetradecahydro-1H-cyclopenta[a]phenanthren-3-ol] the EC50 (LXRβ) was > 10 µM and the IC50 (SREBP-2) was < 0.25 µM.
With C[C@H](COc1cccnc1)[C@H]1CC[C@H]2[C@@H]3CC=C4C[C@@H](O)CC[C@]4(C)[C@H]3CC[C@]12C [Example 180, (3S,8S,9S,10R,13S,14S,17R)-10,13-dimethyl-17-((S)-1-(pyridin-3-yloxy)propan-2-yl)-2,3,4,7,8,9,10,11,12,13,14,15,16,17-tetradecahydro-1H-cyclopenta[a]phenanthren-3-ol] the EC50 (LXRβ) was > 10 µM and the IC50 (SREBP-2) was < 0.25 µM.
For C[C@H](COc1ccncc1)[C@H]1CC[C@H]2[C@@H]3CC=C4C[C@@H](O)CC[C@]4(C)[C@H]3CC[C@]12C [Example 181, (8S,9S,10R,13S,14S,17R)-10,13-dimethyl-17-((S)-1-(pyridin-4-yloxy)propan-2-yl)-2,3,4,7,8,9,10,11,12,13,14,15,16,17-tetradecahydro-1H-cyclopenta[a]phenanthren-3-ol], the EC50 (LXRβ) was > 10 µM and the IC50 (SREBP-2) was 0.25 to 1 µM.
With C[C@H](COc1ccccc1)[C@H]1CC[C@H]2[C@@H]3CC=C4C[C@@H](O)CC[C@]4(C)[C@H]3CC[C@]12C [Example 182, (1R,3aS,3bS,7S,9aR,9bS,11aS)-9a,11a-dimethyl-1-[(2S)-1-phenoxypropan-2-yl]-1H,2H,3H,3aH,3bH,4H,6H,7H,8H,9H,9aH,9bH,10H,11H,11aH-cyclopenta[a]phenanthren-7-ol] the EC50 (LXRβ) was > 10 µM and the IC50 (SREBP-2) was 0.25 to 1 µM.
For C[C@H](CCc1ccns1)[C@H]1CC[C@H]2[C@@H]3CC=C4C[C@@H](O)CC[C@]4(C)[C@H]3CC[C@]12C [Example 183, (3S,8S,9S,10R,13R,14S,17R)-17-((R)-4-(isothiazol-5-yl)butan-2-yl)-10,13-dimethyl-2,3,4,7,8,9,10,11,12,13,14,15,16,17-tetradecahydro-1H-cyclopenta[a]phenanthren-3-ol], the EC50 (LXRβ) was > 10 µM and the IC50 (SREBP-2) was 0.25 to 1 µM.
C[C@H](CCc1ncccc1Cl)[C@H]1CC[C@H]2[C@@H]3CC=C4C[C@@H](O)CC[C@]4(C)[C@H]3CC[C@]12C [Example 184, bis((1R,3aS,3bS,7S,9aR,9bS,11aR)-1-[(2R)-4-(3-chloropyridin-2-yl)butan-2-yl]-9a,11a-dimethyl-1H,2H,3H,3aH,3bH,4H,6H,7H,8H,9H,9aH,9bH,10H,11H,11aH-cyclopenta[a]phenanthren-7-ol)] was tested, and the EC50 (LXRβ) was 1 to 10 µM and the IC50 (SREBP-2) was < 0.25 µM.
C[C@H](CCc1ncccc1C(F)(F)F)[C@H]1CC[C@H]2[C@@H]3CC=C4C[C@@H](O)CC[C@]4(C)[C@H]3CC[C@]12C [Example 185, (1R,3aS,3bS,7S,9aR,9bS,11aR)-9a,11a-dimethyl-1-[(2R)-4-[3-(trifluoromethyl)pyridin-2-yl]butan-2-yl]-1H,2H,3H,3aH,3bH,4H,6H,7H,8H,9H,9aH,9bH,10H,11H, 11 aH-cyclopenta[a]phenanthren-7-ol] was tested, and the EC50 (LXRβ) was 1 to 10 µM and the IC50 (SREBP-2) was 0.25 to 1 µM.
CCc1cccnc1CC[C@@H](C)[C@H]1CC[C@H]2[C@@H]3CC=C4C[C@@H](O)CC[C@]4(C)[C@H]3CC[C@]12C [Example 187, (3S,8S,9S,10R,13R,14S,17R)-17-((R)-4-(3-ethylpyridin-2-yl)butan-2-yl)-10,13-dimethyl-2,3,4,7,8,9,10,11,12,13,14,15,16,17-tetradecahydro-1H-cyclopenta[a]phenanthren-3-ol] was tested, and the EC50 (LXRβ) was 0.25 to 1 µM and the IC50 (SREBP-2) was < 0.25 µM.
With Cc1ncncc1CC[C@@H](C)[C@H]1CC[C@H]2[C@@H]3CC=C4C[C@@H](O)CC[C@]4(C)[C@H]3CC[C@]12C [Example 188, (3S,8S,9S,10R,13R,14S,17R)-10,13-dimethyl-17-((R)-4-(4-methylpyrimidin-5-yl)butan-2-yl)-2,3,4,7,8,9,10,11,12,13,14,15,16,17-tetradecahydro-1H-cyclopenta[a]phenanthren-3-ol] the EC50 (LXRβ) was 1 to 10 µM and the IC50 (SREBP-2) was < 0.25 µM.
With Cc1cc(CC[C@@H](C)[C@H]2CC[C@H]3[C@@H]4CC=C5C[C@@H](O)CC[C@]5(C)[C@H]4CC[C@]23C)ncn1 [Example 189, (1R,3aS,3bS,7S,9aR,9bS,11aR)-9a,11a-dimethyl-1-[(2R)-4-(6-methylpyrimidin-4-yl)butan-2-yl]-1H,2H,3H,3aH,3bH,4H,6H,7H,8H,9H,9aH,9bH,10H,11H,11aH-cyclopenta[a]phenanthren-7-ol] the EC50 (LXRβ) was 1 to 10 µM and the IC50 (SREBP-2) was < 0.25 µM.
Cc1nccc(CC[C@@H](C)[C@H]2CC[C@H]3[C@@H]4CC=C5C[C@@H](O)CC[C@]5(C)[C@H]4CC[C@]23C)n1 [Example 190, (3S,8S,9S,10R,13R,14S,17R)-10,13-dimethyl-17-((R)-4-(2-methylpyrimidin-4-yl)butan-2-yl)-2,3,4,7,8,9,10,11,12,13,14,15,16,17-tetradecahydro-1H-cyclopenta[a]phenanthren-3-ol] showed an EC50 (LXRβ) of 1 to 10 µM and an IC50 (SREBP-2) of 0.25 to 1 µM.
With Cc1ccnc(CC[C@@H](C)[C@H]2CC[C@H]3[C@@H]4CC=C5C[C@@H](O)CC[C@]5(C)[C@H]4CC[C@]23C)n1 [Example 191, (3S,8S,9S,10R,13R,14S,17R)-10,13-dimethyl-17-((R)-4-(4-methylpyrimidin-2-yl)butan-2-yl)-2,3,4,7,8,9,10,11,12,13,14,15,16,17-tetradecahydro-1H-cyclopenta[a]phenanthren-3-ol] the EC50 (LXRβ) was 0.25 to 1 µM and the IC50 (SREBP-2) was < 0.25 µM.

— patent US20230340011A1 (Asteroid Therapeutics, priority 2022, published 2023)
